Data as given in PubChem BioAssay (NCI).
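At the GI50, growth is halved. The concentration for full growth arrest is given as TGI.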

Key:
Assay in all cases: inhibition of tumour cell growth, NCI panel, 384-well format
NCI-H522 lung = test system: NCI-H522 lung
SF-295 CNS = test system: SF-295 CNS
SW-620 colon = test system: SW-620 colon
M14 melanoma = test system: M14 melanoma
MALME-3M melanoma = test system: MALME-3M melanoma
OVCAR-3 ovarian = test system: OVCAR-3 ovarian
SF-268 CNS = test system: SF-268 CNS
OVCAR-4 ovarian = test system: OVCAR-4 ovarian
MDA-MB-435 melanoma = test system: MDA-MB-435 melanoma
MCF7 breast = test system: MCF7 breast
HS 578T breast = test system: HS 578T breast
DU-145 prostate = test system: DU-145 prostate
A498 renal = test system: A498 renal
OVCAR-8 ovarian = test system: OVCAR-8 ovarian
SR leukemia = test system: SR leukemia
SK-OV-3 ovarian = test system: SK-OV-3 ovarian
HL-60(TB) leukemia = test system: HL-60(TB) leukemia
SK-MEL-2 melanoma = test system: SK-MEL-2 melanoma
IGROV1 ovarian = test system: IGROV1 ovarian
A549 NSCLC = test system: A549 NSCLC
SF-539 CNS = test system: SF-539 CNS
TK-10 renal = test system: TK-10 renal
OVCAR-5 ovarian = test system: OVCAR-5 ovarian
HCT-15 colon = test system: HCT-15 colon
PC-3 prostate = test system: PC-3 prostate
HOP-62 NSCLC = test system: HOP-62 NSCLC
U251 glioblastoma = test system: U251 glioblastoma
BT-549 breast = test system: BT-549 breast
NCI-H460 NSCLC = test system: NCI-H460 NSCLC
T-47D breast = test system: T-47D breast
UACC-257 melanoma = test system: UACC-257 melanoma
SK-MEL-28 melanoma = test system: SK-MEL-28 melanoma
786-0 renal = test system: 786-0 renal
NCI-H226 lung = test system: NCI-H226 lung
UACC-62 melanoma = test system: UACC-62 melanoma
ACHN renal = test system: ACHN renal
UO-31 renal = test system: UO-31 renal
NCI-H322M lung = test system: NCI-H322M lung
CAKI-1 renal = test system: CAKI-1 renal
SK-MEL-5 melanoma = test system: SK-MEL-5 melanoma
HT29 colon = test system: HT29 colon
MDA-MB-231 breast = test system: MDA-MB-231 breast
MOLT-4 leukemia = test system: MOLT-4 leukemia
SNB-19 CNS = test system: SNB-19 CNS
COLO 205 colon = test system: COLO 205 colon
K-562 leukemia = test system: K-562 leukemia
NCI-H23 lung = test system: NCI-H23 lung
RXF 393 renal = test system: RXF 393 renal
KM12 colon = test system: KM12 colon
EKVX NSCLC = test system: EKVX NSCLC
SN12C renal = test system: SN12C renal
SNB-75 CNS = test system: SNB-75 CNS
HOP-92 NSCLC = test system: HOP-92 NSCLC
MDA-MB-468 breast = test system: MDA-MB-468 breast

Cc1nc(Nc2n[nH]c3c2CN(C(=O)N[C@H](CN(C)C)c2ccccc2)C3(C)C)c2sccc2n1
GI50 (NCI-H522 lung): < 10 nM
TGI (NCI-H522 lung): 214 nM
GI50 (SF-295 CNS): 57.1 nM
TGI (SF-295 CNS): 2290 nM
GI50 (SW-620 colon): < 10 nM
TGI (SW-620 colon): 2210 nM
GI50 (M14 melanoma): 18.8 nM
TGI (M14 melanoma): 1500 nM
GI50 (MALME-3M melanoma): < 10 nM
TGI (MALME-3M melanoma): 1490 nM
GI50 (OVCAR-3 ovarian): < 10 nM
TGI (OVCAR-3 ovarian): 152 nM
GI50 (SF-268 CNS): 118 nM
TGI (SF-268 CNS): 1350 nM
GI50 (OVCAR-4 ovarian): 40.6 nM
TGI (OVCAR-4 ovarian): 3790 nM
GI50 (MDA-MB-435 melanoma): < 10 nM
TGI (MDA-MB-435 melanoma): 1670 nM
GI50 (MCF7 breast): < 10 nM
TGI (MCF7 breast): 193 nM
GI50 (HS 578T breast): 93.6 nM
TGI (HS 578T breast): 763 nM
GI50 (DU-145 prostate): < 10 nM
TGI (DU-145 prostate): 10200 nM
GI50 (A498 renal): 30.1 nM
TGI (A498 renal): 2380 nM
GI50 (OVCAR-8 ovarian): 33.3 nM
TGI (OVCAR-8 ovarian): 1470 nM
GI50 (SR leukemia): < 10 nM
GI50 (SK-OV-3 ovarian): 178 nM
TGI (SK-OV-3 ovarian): 8090 nM
GI50 (HL-60(TB) leukemia): < 10 nM
TGI (HL-60(TB) leukemia): 117 nM
GI50 (SK-MEL-2 melanoma): < 10 nM
TGI (SK-MEL-2 melanoma): 207 nM
GI50 (IGROV1 ovarian): < 10 nM
TGI (IGROV1 ovarian): 449 nM
GI50 (A549 NSCLC): 39.6 nM
TGI (A549 NSCLC): 61700 nM
GI50 (SF-539 CNS): < 10 nM
TGI (SF-539 CNS): 1020 nM
GI50 (TK-10 renal): 179 nM
TGI (TK-10 renal): 11000 nM
GI50 (OVCAR-5 ovarian): 61.3 nM
TGI (OVCAR-5 ovarian): 11200 nM
GI50 (HCT-15 colon): 449 nM
TGI (HCT-15 colon): 13600 nM
GI50 (PC-3 prostate): < 10 nM
TGI (PC-3 prostate): 642 nM
GI50 (HOP-62 NSCLC): < 10 nM
TGI (HOP-62 NSCLC): 113 nM
GI50 (U251 glioblastoma): < 10 nM
TGI (U251 glioblastoma): 2660 nM
GI50 (BT-549 breast): < 10 nM
TGI (BT-549 breast): 109 nM
GI50 (NCI-H460 NSCLC): < 10 nM
TGI (NCI-H460 NSCLC): 1300 nM
GI50 (T-47D breast): 576 nM
TGI (T-47D breast): 3840 nM
GI50 (UACC-257 melanoma): 19 nM
TGI (UACC-257 melanoma): 632 nM
GI50 (SK-MEL-28 melanoma): < 10 nM
TGI (SK-MEL-28 melanoma): 1260 nM
GI50 ([…]-0 renal): 58.1 nM
TGI (786-0 renal): 1920 nM
GI50 (NCI-H226 lung): 88.1 nM
TGI (NCI-H226 lung): 1590 nM
GI50 (UACC-62 melanoma): < 10 nM
TGI (UACC-62 melanoma): 19.4 nM
GI50 (ACHN renal): 35.6 nM
TGI (ACHN renal): 3060 nM
GI50 (UO-31 renal): 1610 nM
TGI (UO-31 renal): 14400 nM
GI50 (NCI-H322M lung): 174 nM
TGI (NCI-H322M lung): 1580 nM
GI50 (CAKI-1 renal): 52.2 nM
TGI (CAKI-1 renal): 2790 nM
GI50 (SK-MEL-5 melanoma): < 10 nM
TGI (SK-MEL-5 melanoma): 827 nM
GI50 (HT29 colon): 10.8 nM
TGI (HT29 colon): 1750 nM
GI50 (MDA-MB-231 breast): 102 nM
TGI (MDA-MB-231 breast): 1240 nM
GI50 (MOLT-4 leukemia): < 10 nM
TGI (MOLT-4 leukemia): 122 nM
GI50 (SNB-19 CNS): 382 nM
TGI (SNB-19 CNS): 12500 nM
GI50 (COLO 205 colon): < 10 nM
TGI (COLO 205 colon): 193 nM
GI50 (K-562 leukemia): < 10 nM
TGI (K-562 leukemia): 3390 nM
GI50 (NCI-H23 lung): < 10 nM
TGI (NCI-H23 lung): 214 nM
GI50 (RXF 393 renal): 144 nM
TGI (RXF 393 renal): 960 nM
GI50 (KM12 colon): < 10 nM
TGI (KM12 colon): 1060 nM
GI50 (EKVX NSCLC): 195 nM
TGI (EKVX NSCLC): 2140 nM
GI50 (SN12C renal): < 10 nM
TGI (SN12C renal): 1150 nM
GI50 (SNB-75 CNS): 274 nM
TGI (SNB-75 CNS): 1410 nM
GI50 (HOP-92 NSCLC): 131 nM
TGI (HOP-92 NSCLC): 911 nM
GI50 (MDA-MB-468 breast): < 10 nM
TGI (MDA-MB-468 breast): 431 nM
